#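 Cells were grown in 96-well plates and exposed to each compound for 48 hours at five concentrations; endpoints were interpolated linearly between bracketing concentrations, or set to the highest concentration if not reached. GI50 = concentration required for 50% inhibition of growth. At the TGI there is no net growth.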
# Legend:
# Assay in all cases: NCI-60 cell line screen, 48 h
# NCI-H522 lung = tested on: NCI-H522 lung
# SR leukemia = tested on: SR leukemia
# HOP-62 NSCLC = tested on: HOP-62 NSCLC
# PC-3 prostate = tested on: PC-3 prostate
# LOX IMVI melanoma = tested on: LOX IMVI melanoma
# OVCAR-4 ovarian = tested on: OVCAR-4 ovarian
# EKVX NSCLC = tested on: EKVX NSCLC
# A549 NSCLC = tested on: A549 NSCLC
# OVCAR-5 ovarian = tested on: OVCAR-5 ovarian
# SK-MEL-28 melanoma = tested on: SK-MEL-28 melanoma
# SK-MEL-2 melanoma = tested on: SK-MEL-2 melanoma
# NCI-H23 lung = tested on: NCI-H23 lung
# NCI-H226 lung = tested on: NCI-H226 lung
# KM12 colon = tested on: KM12 colon
# COLO 205 colon = tested on: COLO 205 colon
# HCT-116 colon = tested on: HCT-116 colon
# HOP-92 NSCLC = tested on: HOP-92 NSCLC
# BT-549 breast = tested on: BT-549 breast
# SN12C renal = tested on: SN12C renal
# SF-268 CNS = tested on: SF-268 CNS
# M14 melanoma = tested on: M14 melanoma
# HT29 colon = tested on: HT29 colon
# TK-10 renal = tested on: TK-10 renal
# OVCAR-3 ovarian = tested on: OVCAR-3 ovarian
# SF-539 CNS = tested on: SF-539 CNS
# NCI/ADR-RES ovarian = tested on: NCI/ADR-RES ovarian
# K-562 leukemia = tested on: K-562 leukemia
# CCRF-CEM leukemia = tested on: CCRF-CEM leukemia
# OVCAR-8 ovarian = tested on: OVCAR-8 ovarian
# RXF 393 renal = tested on: RXF 393 renal
# U251 CNS = tested on: U251 CNS
# UACC-257 melanoma = tested on: UACC-257 melanoma
# A498 renal = tested on: A498 renal
# SK-MEL-5 melanoma = tested on: SK-MEL-5 melanoma
# SNB-19 CNS = tested on: SNB-19 CNS
# RPMI-8226 leukemia = tested on: RPMI-8226 leukemia
# MDA-MB-231 breast = tested on: MDA-MB-231 breast
# SF-295 CNS = tested on: SF-295 CNS
# SNB-75 CNS = tested on: SNB-75 CNS
# MALME-3M melanoma = tested on: MALME-3M melanoma
# HCT-15 colon = tested on: HCT-15 colon
# ACHN renal = tested on: ACHN renal
# HL-60(TB) leukemia = tested on: HL-60(TB) leukemia
# HS 578T breast = tested on: HS 578T breast
# MCF7 breast = tested on: MCF7 breast
# T-47D breast = tested on: T-47D breast
# HCC-2998 colon = tested on: HCC-2998 colon
# UACC-62 melanoma = tested on: UACC-62 melanoma
# MDA-MB-435 = tested on: MDA-MB-435
# SK-OV-3 ovarian = tested on: SK-OV-3 ovarian
# UO-31 renal = tested on: UO-31 renal
# 786-0 renal = tested on: 786-0 renal
smiles,measurement,setting,value
CC(C)[C@]12O[C@H]1[C@@H]1O[C@]13[C@]1(O[C@H]1C[C@H]1C4=C(CC[C@@]13C)C(=O)OC4)[C@@H]2OC(=O)CN(C)C,GI50,NCI-H522 lung,21.6 nM
same,TGI,NCI-H522 lung,110 nM
same,GI50,SR leukemia,14.3 nM
same,TGI,SR leukemia,189 nM
same,GI50,HOP-62 NSCLC,31.4 nM
same,GI50,PC-3 prostate,21.8 nM
same,TGI,PC-3 prostate,> 100000 nM
same,GI50,LOX IMVI melanoma,10.1 nM
same,TGI,LOX IMVI melanoma,> 100000 nM
same,GI50,OVCAR-4 ovarian,32.6 nM
same,TGI,OVCAR-4 ovarian,> 46200 nM
same,GI50,EKVX NSCLC,110 nM
same,TGI,EKVX NSCLC,> 100000 nM
same,GI50,A549 NSCLC,58.7 nM
same,GI50,OVCAR-5 ovarian,49.1 nM
same,TGI,OVCAR-5 ovarian,> 100000 nM
same,GI50,SK-MEL-28 melanoma,20.7 nM
same,TGI,SK-MEL-28 melanoma,61.5 nM
same,GI50,SK-MEL-2 melanoma,26.7 nM
same,TGI,SK-MEL-2 melanoma,73.2 nM
same,GI50,NCI-H23 lung,11.6 nM
same,GI50,NCI-H226 lung,19.1 nM
same,TGI,NCI-H226 lung,178 nM
same,GI50,KM12 colon,208 nM
same,TGI,KM12 colon,2640 nM
same,GI50,COLO 205 colon,17 nM
same,TGI,COLO 205 colon,42.4 nM
same,GI50,HCT-116 colon,12.8 nM
same,TGI,HCT-116 colon,> 100000 nM
same,GI50,HOP-92 NSCLC,38.3 nM
same,GI50,BT-549 breast,18.4 nM
same,TGI,BT-549 breast,56.4 nM
same,GI50,SN12C renal,30.9 nM
same,TGI,SN12C renal,> 100000 nM
same,GI50,SF-268 CNS,37 nM
same,TGI,SF-268 CNS,367 nM
same,GI50,M14 melanoma,17 nM
same,TGI,M14 melanoma,37.3 nM
same,GI50,HT29 colon,17.9 nM
same,TGI,HT29 colon,> 100000 nM
same,GI50,TK-10 renal,48 nM
same,TGI,TK-10 renal,> 100000 nM
same,GI50,OVCAR-3 ovarian,20.8 nM
same,TGI,OVCAR-3 ovarian,63.3 nM
same,GI50,SF-539 CNS,41.1 nM
same,TGI,SF-539 CNS,332 nM
same,GI50,NCI/ADR-RES ovarian,48.1 nM
same,TGI,NCI/ADR-RES ovarian,> 100000 nM
same,GI50,K-562 leukemia,28.3 nM
same,TGI,K-562 leukemia,> 100000 nM
same,GI50,CCRF-CEM leukemia,31.5 nM
same,GI50,OVCAR-8 ovarian,33.6 nM
same,TGI,OVCAR-8 ovarian,> 100000 nM
same,GI50,RXF 393 renal,15.7 nM
same,TGI,RXF 393 renal,33.6 nM
same,GI50,U251 CNS,48.8 nM
same,TGI,U251 CNS,> 100000 nM
same,GI50,UACC-257 melanoma,17.5 nM
same,TGI,UACC-257 melanoma,56.3 nM
same,GI50,A498 renal,16.1 nM
same,TGI,A498 renal,48.3 nM
same,GI50,SK-MEL-5 melanoma,15.2 nM
same,TGI,SK-MEL-5 melanoma,39.6 nM
same,GI50,SNB-19 CNS,286 nM
same,TGI,SNB-19 CNS,> 100000 nM
same,GI50,RPMI-8226 leukemia,18.1 nM
same,TGI,RPMI-8226 leukemia,> 100000 nM
same,GI50,MDA-MB-231 breast,57.8 nM
same,TGI,MDA-MB-231 breast,> 100000 nM
same,GI50,SF-295 CNS,77.7 nM
same,TGI,SF-295 CNS,> 100000 nM
same,GI50,SNB-75 CNS,28.6 nM
same,TGI,SNB-75 CNS,141 nM
same,GI50,MALME-3M melanoma,19.3 nM
same,TGI,MALME-3M melanoma,73.3 nM
same,GI50,HCT-15 colon,29.1 nM
same,TGI,HCT-15 colon,> 100000 nM
same,GI50,ACHN renal,21 nM
same,TGI,ACHN renal,> 100000 nM
same,GI50,HL-60(TB) leukemia,15.3 nM
same,TGI,HL-60(TB) leukemia,118 nM
same,GI50,HS 578T breast,22.7 nM
same,TGI,HS 578T breast,88.9 nM
same,GI50,MCF7 breast,22 nM
same,TGI,MCF7 breast,> 100000 nM
same,GI50,T-47D breast,34 nM
same,TGI,T-47D breast,> 100000 nM
same,GI50,HCC-2998 colon,10.2 nM
same,TGI,HCC-2998 colon,44 nM
same,GI50,UACC-62 melanoma,22.8 nM
same,TGI,UACC-62 melanoma,72.4 nM
same,GI50,MDA-MB-435,17.6 nM
same,TGI,MDA-MB-435,74.8 nM
same,GI50,SK-OV-3 ovarian,48.5 nM
same,TGI,SK-OV-3 ovarian,> 100000 nM
same,GI50,UO-31 renal,14.6 nM
same,TGI,UO-31 renal,> 100000 nM
same,GI50,786-0 renal,32.6 nM
same,TGI,786-0 renal,> 100000 nM

# From PubChem BioAssay (NCI)
